Measurements: US20190308988A1, “OPIOID RECEPTOR ANTAGONIST PRODRUGS” (Nirsum Laboratories, Inc., priority 2017, published 2019)

Experiments:
[1] = Plasma stability, monkey plasma (HPLC-MS); format: in vitro ADME, Cynomolgus Monkey; details: 2 μM, 37° C.
Protocol: Plasma Stability Determination of the Test Compounds in Rat, Dog, Cynomolgus Monkey and human plasma is performed using HPLC-MS. For rat, incubations are carried out in 96-well polypropylene plates in 5 aliquots of 70 μL each (one for each time point). […] Five time points are analyzed (0, 15, 120, 480 and 1440 min). […] All incubations are performed in duplicates. The samples are analyzed by HPLC-MS. The percentage of parent compound remaining after incubation in plasma is determined.

[2] = Liver S9 fraction stability, dog; format: in vitro ADME; details: dog liver S9 1.0 mg/ml, 2 μM, 37° C.
Protocol: (§1) Liver S9 fraction stability determination of the test compounds in dog, cynomolgus monkey and human is performed using HPLC-MS. Test compound (2 μM, 0.1% DMSO, 1% Methanol final concentration) was assessed for stability in a 50 μl phosphate buffer containing 1.0 mg/ml S9 protein from each of the three species and 5 mM D-saccharic acid-1, 4-lactone. Samples were incubated at 37° C. for 60 minutes and the % compound remaining was assessed.

[3] = Liver S9 fraction stability, monkey; format: in vitro ADME, cynomolgus monkey; details: monkey liver S9 1.0 mg/ml, 2 μM, 37° C.
Protocol: as §1

[4] = Liver S9 fraction stability, human; format: in vitro ADME; details: human liver S9 1.0 mg/ml, 2 μM, 37° C.
Protocol: as §1

CCCCCCCCCCCCCCCC(=O)OC1CCCn2c1nc(C)c(CCN1CCC(c3noc4cc(F)ccc34)CC1)c2=O (stereo not shown) [Paliperidone palmitate, reference compound]
% remaining at time point in minutes, 15 min [1]: 92%
% remaining at 60 minutes, Dog [2]: 56.4%
% remaining at 60 minutes, Monkey [3]: 57.4%
% remaining at 60 minutes, Human [4]: 47.8%
